In patent US11180462B2, “Microbiocidal oxadiazole derivatives” (SYNGENTA PARTICIPATIONS AG, priority 2015, dated 2021):

Tests used:
Phakopsora Pachyrhizi = assay: Fungicidal activity against Phakopsora pachyrhizi / soybean / leaf disc preventative (Asian soybean rust); format: in vivo; conditions: foliar, 200 ppm in the applied formulation, soybean leaf disks, compared to untreated control leaf disks, read-out: disease control
In short: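 Scored 12 to 14 days post-application as percent control relative to untreated check discs, rust spores were sprayed under the disc one day after compound treatment. Incubation: 20°C, 75% rh, first 24–36 h in darkness, then 12 h daily light; discs kept on water agar.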

[1] = tested on: Glomerella lagenarium (Colletotrichum lagenarium); assay: Fungicidal activity against Glomerella lagenarium (Colletotrichum lagenarium) liquid culture / cucumber / preventative (anthracnose); format: cell-based; conditions: Colletotrichum orbiculare; 20 ppm in the applied formulation; liquid culture (PDB), growth inhibition measured photometrically after 3 to 4 days; compared to untreated control; read-out: disease control
In short: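 Percent activity against the untreated check was derived from photometric growth measurements made 2 to 7 days after conidia in potato dextrose broth were combined with compound at 20 ppm. Cultures were kept dark at 24 °C and 96% humidity.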

[2] = tested on: Puccinia recondita f. Sp. Tritici; assay: Fungicidal activity against Puccinia recondita f. sp. tritici / wheat / leaf disc preventative (brown rust); format: in vivo; conditions: foliar, 200 ppm in the applied formulation, wheat leaf segments, preventative, compared to untreated control leaf disks, read-out: disease control
In short: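 200 ppm spray on wheat cv. Kanzler leaf segments; spore inoculation +1 day; 19° C., 75% rh, 12 h/12 h light cycle; single rating of % control vs untreated at 7 to 9 days.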

[3] = tested on: Puccinia recondita f. Sp. Tritici; assay: Fungicidal activity against Puccinia recondita f. sp. tritici / wheat / leaf disc curative (brown rust); format: in vivo; conditions: foliar, 24 h, 200 ppm in the applied formulation, wheat leaf segments, curative (applied 1 day after inoculation), compared to untreated control leaf disks, read-out: disease control
In short: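 Segments of wheat cv. Kanzler were laid on agar and inoculated with a spore suspension of the rust, then held in darkness at 19° C and 75% relative humidity. One day later the water-diluted formulated compound was applied, with incubation continued under a 12 h light/dark cycle.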

SMILES	melting point	pest or weed control at 200 ppm (Phakopsora Pachyrhizi)	inhibition of growth at 20 ppm [1]	pest or weed control at 200 ppm [2]	pest or weed control at 200 ppm [3]
CON(Cc1ccc(-c2noc(C(F)(F)F)n2)cc1)C(=O)C(NC(=O)C1CC1)C(C)C (stereo not drawn) [Compound 1.54, N-[1-(methoxy-[[4-[5-(trifluoromethyl)-1,2,4-oxadiazol-3-yl]phenyl]methyl]carbamoyl]-2-methyl-propyl]-cyclopropane-carboxamide]	104.4 to 109 °C	≥ 80%	≥ 80%	≥ 80%	≥ 80%
COCC(=O)N(Cc1ccc(-c2noc(C(F)(F)F)n2)cc1)CC(F)(F)F [Compound 1.583, 2-methoxy-N-(2,2,2-trifluoroethyl)-N-[[4-[5-(trifluoromethyl)-1,2,4-oxadiazol-3-yl]phenyl]methyl]-acetamide]	92.6 to 94.3 °C	≥ 80%	≥ 80%	≥ 80%	≥ 80%
CN(Cc1ccc(-c2noc(C(F)(F)F)n2)cc1)C(=O)CO [Compound 1.593, 2-hydroxy-N-methyl-N-[[4-[5-(trifluoromethyl)-1,2,4-oxadiazol-3-yl]phenyl]methyl]-acetamide]	54 to 60 °C		≥ 80%	≥ 80%	≥ 80%
CCC(=O)N(O)Cc1ccc(-c2noc(C(F)(F)F)n2)cc1 [Compound 1.603, N-hydroxy-N-[[4-[5-(trifiuoromethyl)-1,2,4-oxadiazol-3-yl]phenyl]methyl]-propanamide]	141.2 to 143.5 °C	≥ 80%	≥ 80%	≥ 80%	≥ 80%
CCC(=O)N(Cc1ccc(-c2noc(C(F)(F)F)n2)cc1)C1COC1 [Compound 1.604, N—(Oxetan-3-yl)-N-[[4-[5-(Trifluoromethyl)-1,2,4-Oxadiazol-3-yl]Phenyl]Methyl]Propanamide]	88.8 to 93.5 °C	≥ 80%	≥ 80%	≥ 80%	≥ 80%
O=C(C1CC1)N(Cc1ccc(-c2noc(C(F)(F)F)n2)cc1)C1COC1 [Compound 1.605, N-(oxetan-3-yl)-N-[[4-[5-(trifluoromethyl)-1,2,4-oxadiazol-3-yl]phenyl]methyl]-cyclopropane-carboxamide]	89.5 to 94 °C	≥ 80%	≥ 80%	≥ 80%	≥ 80%
COCC(=O)N(O)Cc1ccc(-c2noc(C(F)(F)F)n2)cc1 [Compound 1.606, N-hydroxy-2-methoxy-N-[[4-[5-(trifluoromethyl)-1,2,4-oxadiazol-3-yl]phenyl]methyl]-acetamide]	144.4 to 147.8 °C	≥ 80%	≥ 80%	≥ 80%	≥ 80%
O=C(C1CC1)N(O)Cc1ccc(-c2noc(C(F)(F)F)n2)cc1 [Compound 1.607, N-hydroxy-N-[[4-[5-(trifiuoromethyl)-1,2,4-oxadiazol-3-yl]phenyl]methyl]-cyclopropane-carboxamide]	141.2 to 143.5 °C	≥ 80%	≥ 80%	≥ 80%	≥ 80%
CON(Cc1ccc(-c2noc(C(F)(F)F)n2)cc1)C(=O)CNC(=O)OC(C)(C)C [Compound 1.787, tert-butyl N-[2-(methoxy-[[4-[5-(trifluoromethyl)-1,2,4-oxadiazol-3-yl]phenyl]methyl]-amino]-2-oxo-ethyl]carbamate]	80 to 83.1 °C		≥ 80%	≥ 80%	≥ 80%
CON(Cc1ccc(-c2noc(C(F)(F)F)n2)cc1)C(=O)C(C)NC(=O)OC(C)(C)C (stereo not drawn) [Compound 1.791, tert-butyl N-[2-(methoxy-[[4-[5-(trifluoromethyl)-1,2,4-oxadiazol-3-yl]phenyl]methyl]-amino]-1-methyl-2-oxo-ethyl]carbamate]	108.8 to 111.9 °C		≥ 80%	≥ 80%	≥ 80%
CCC(=O)NCC(=O)N(Cc1ccc(-c2noc(C(F)(F)F)n2)cc1)OC [Compound 1.793, N-[2-[methoxy-[[4-[5-(trifluoromethyl)-1,2,4-oxadiazol-3-yl]phenyl]methyl]-amino]-2-oxo-ethyl]propanamide]	115.3 to 117.8 °C		≥ 80%	≥ 80%	≥ 80%
CCON(Cc1ccc(-c2noc(C(F)(F)F)n2)cc1)C(=O)OC [Compound 2.5, methyl N-ethoxy-N-[[4-[5-(trifluoromethyl)-1,2,4-oxadiazol-3-yl]phenyl]methyl]-carbamate]	50.6 to 53 °C	≥ 80%	≥ 80%		≥ 80%
CNC(=O)N(Cc1ccc(-c2noc(C(F)(F)F)n2)cc1)C1CC1 [Compound 3.35, 1-cyclopropyl-3-methyl-1-[[4-[5-(trifluoromethyl)-1,2,4-oxadiazol-3-yl]phenyl]methyl]urea]	113 to 114 °C		≥ 80%	≥ 80%	
CON(Cc1ccc(-c2noc(C(F)(F)F)n2)cc1)C(=O)NCC1CC1(F)F (stereo not drawn) [Compound 3.103, 3-[(2,2-difluorocyclopropyl)-methyl]-1-methoxy-1-[[4-[5-(trifluoromethyl)-1,2,4-oxadiazol-3-yl]phenyl]methyl]urea]	81 to 84 °C		≥ 80%	≥ 80%	≥ 80%

More lines, main results first:

melting point	SMILES	pest or weed control at 200 ppm (Phakopsora Pachyrhizi)	inhibition of growth at 20 ppm [1]	pest or weed control at 200 ppm [2]	pest or weed control at 200 ppm [3]
94 to 99 °C	CON(Cc1ccc(-c2noc(C(F)(F)F)n2)cc1)C(=O)/C=C/c1ccccc1 [Compound 1.5, (E)-N-methoxy-3-phenyl-N-[[4-[5-(trifluoromethyl)-1,2,4-oxadiazol-3-yl]phenyl]methyl]-prop-2-enamide]	≥ 80%	≥ 80%		
80 to 89 °C	CON(Cc1ccc(-c2noc(C(F)(F)F)n2)cn1)C(=O)c1ccccc1Cl [Compound 1.572, 2-chloro-N-methoxy-N-[[5-[5-(trifluoromethyl)-1,2,4-oxadiazol-3-yl]-2-pyridyl]methyl]-benzamide]		≥ 80%	≥ 80%	
89 to 95 °C	CON(Cc1ccc(-c2noc(C(F)(F)F)n2)c(F)c1)C(=O)c1ccccc1Cl [Compound 1.581, 2-chloro-N-[[3-fluoro-4-[5-(trifluoromethyl)-1,2,4-oxadiazol-3-yl]phenyl]methyl]-N-methoxy-benzamide]	≥ 80%	≥ 80%	≥ 80%	
135.9 to 138.5 °C	CON(Cc1ccc(-c2noc(C(F)(F)F)n2)cc1)C(=O)CNC(=O)C1CC1 [Compound 1.790, N-[2-[methoxy-[[4-[5-(trifluoro-methyl)-1,2,4-oxadiazol-3-yl]phenyl]methyl]-amino]-2-oxo-ethyl]-cyclopropane-carboxamide]		≥ 80%	≥ 80%	≥ 80%
200.7 to 203.2 °C	CON(Cc1ccc(-c2noc(C(F)(F)F)n2)cc1)C(=O)C(C)N.Cl (stereo not drawn) [Compound 1.792, [2-[methoxy-[[4-[5-(trifluoromethyl)-1,2,4-oxadiazol-3-yl]phenyl]methyl]-amino]-1-methyl-2-oxo-ethyl]ammonium; chloride]			≥ 80%	≥ 80%
132.8 to 134.9 °C	CON(Cc1ccc(-c2noc(C(F)(F)F)n2)cc1)C(=O)CNC(C)=O [Compound 1.794, 2-acetamido-N-methoxy-N-[[4-[5-(trifluoromethyl)-1,2,4-oxadiazol-3-yl]phenyl]methyl]-acetamide]		≥ 80%	≥ 80%	≥ 80%
126 to 130 °C	CNC(=O)CNC(=O)N(Cc1ccc(-c2noc(C(F)(F)F)n2)cc1)OC [Compound 3.50, 2-[[methoxy-[[4-[5-(trifluoromethyl)-1,2,4-oxadiazol-3-yl]phenyl]methyl]-carbamoyl]amino]-N-methyl-acetamide]			≥ 80%	≥ 80%
107 to 110 °C	CON(Cc1ccc(-c2noc(C(F)(F)F)n2)cc1)C(=O)NCC1(O)CC1 [Compound 3.54, 3-[(1-hydroxycyclopropyl)-methyl]-1-methoxy-1-[[4-[5-(trifluoromethyl)-1,2,4-oxadiazol-3-yl]phenyl]methyl]urea]		≥ 80%	≥ 80%	≥ 80%
